What follows are compounds tested against T1, human RXFP1 (Homo sapiens, UniProt Q9HBX9) (assay: hRXFP1 HEK293 cAMP assay (HTRF)). Conditions: HEK293 cells stably expressing human RXFP1; 30 min at rt; intracellular cAMP by HTRF.
T1 construct: expressed in transfected cells
T1 sequence (Q9HBX9 1-757): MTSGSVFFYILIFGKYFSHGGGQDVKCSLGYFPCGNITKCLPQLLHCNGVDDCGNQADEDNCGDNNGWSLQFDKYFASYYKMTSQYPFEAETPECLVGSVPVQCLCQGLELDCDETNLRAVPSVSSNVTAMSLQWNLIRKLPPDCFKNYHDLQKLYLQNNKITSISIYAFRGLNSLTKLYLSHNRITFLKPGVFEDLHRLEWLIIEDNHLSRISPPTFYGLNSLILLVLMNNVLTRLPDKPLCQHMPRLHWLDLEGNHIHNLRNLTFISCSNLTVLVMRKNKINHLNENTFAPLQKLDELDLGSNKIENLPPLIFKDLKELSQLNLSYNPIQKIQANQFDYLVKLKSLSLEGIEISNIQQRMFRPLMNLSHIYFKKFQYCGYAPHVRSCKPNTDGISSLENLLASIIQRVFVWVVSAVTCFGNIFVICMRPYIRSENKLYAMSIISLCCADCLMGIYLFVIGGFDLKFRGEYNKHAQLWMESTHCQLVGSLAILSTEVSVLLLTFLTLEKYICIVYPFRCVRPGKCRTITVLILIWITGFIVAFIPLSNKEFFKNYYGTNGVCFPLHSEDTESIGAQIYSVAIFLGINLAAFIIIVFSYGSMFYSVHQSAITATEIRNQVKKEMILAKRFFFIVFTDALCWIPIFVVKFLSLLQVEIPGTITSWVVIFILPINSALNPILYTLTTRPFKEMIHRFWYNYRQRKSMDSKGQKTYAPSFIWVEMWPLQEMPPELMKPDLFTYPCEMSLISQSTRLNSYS
Format: cell-based
In short: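 HEK293 cells stably expressing human RXFP1 treated 30 min at rt with compound (0.010 nM to 50 μM, 2% DMSO) in HBSS/HEPES buffer with 0.5 mM IBMX. Intracellular cAMP measured by HTRF (665/590 nm ratio) against a cAMP standard curve; potency fitted by 4-parameter logistic.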
With COc1ccc(C2=NOC3CC(NC(=O)CO)CC23)cc1C(=O)Nc1c(C(=O)Nc2ccc(F)c(C(F)(F)F)c2)sc2cc(C(F)(F)F)ccc12 (single isomer, unassigned) [Example 266, N-[4-fluoro-3-(trifluoromethyl)phenyl]-3-{5-[5-(2-hydroxyacetamido)-3aH,4H,5H,6H, 6aH-cyclopenta[d] [1,2]oxazol-3-yl]-2-methoxy-benzamido}-6-(trifluoromethyl)-1-benzothiophene-2-carboxamide] the EC50 was 2410 nM. Work on COc1ccc(C(=O)NCC(C)(C)O)cc1C(=O)Nc1c(C(=O)Nc2ccc(F)c(C(F)(F)F)c2)sc2cc(C(F)(F)F)ccc12 [Example 237, N3-(2-((4-fluoro-3-(trifluoromethyl)phenyl)carbamoyl)-6-(trifluoromethyl)benzo[b]thiophen-3-yl)-N1-(2-hydroxy-2-methylpropyl)-4-methoxy-isophthalamide] yielded an EC50 of 3770 nM. COc1ccc(C2CC3(C2)CN(CCS(C)(=O)=O)C3)cc1C(=O)Nc1c(C(=O)Nc2ccc(F)c(C(F)(F)F)c2)sc2cc(C(F)(F)F)ccc12 [Example 205, N-(4-fluoro-3-(trifluoromethyl)phenyl)-3-(2-methoxy-5-(2-(2-(methylsulfonyl)ethyl)-2-azaspiro[3.3]heptan-6-yl)benzamido)-6-(trifluoromethyl) benzo[b] thiophene-2-carboxamide] showed an EC50 of 1100 nM. Compound COc1ccc(C2CCCN(C(=O)CO)C2)cc1C(=O)Nc1c(C(=O)Nc2ccc(F)c(C(F)(F)F)c2)sc2cc(C(F)(F)F)ccc12 (single isomer, unassigned) [Example 91, N-[4-fluoro-3-(trifluoromethyl)phenyl]-3-{5-[1-(2-hydroxyacetyl)piperidin-3-yl]-2-methoxy-benzamido}-6-(trifluoromethyl)-1-benzothiophene-2-carboxamide] has an EC50 of 95.8 nM. Work on COc1ccc(C2=NOC3(C2)CN(C(=O)CO)C3)cc1C(=O)Nc1c(C(=O)Nc2ccc(F)c(C(F)(F)F)c2)sc2cc(C(F)(F)F)ccc12 [Example 285, N-(4-fluoro-3-(trifluoromethyl)phenyl)-3-(5-(2-(2-hydroxyacetyl)-5-oxa-2,6-diazaspiro[3.4]oct-6-en-7-yl)-2-methoxy-benzamido)-6-(trifluoromethyl) benzo[b] thiophene-2-carboxamide] yielded an EC50 of 1860 nM. In the case of COc1ccc(C2CCCN(C(=O)CN(C)C)C2)cc1C(=O)Nc1c(C(=O)Nc2ccc(F)c(C(F)(F)F)c2)sc2cc(C(F)(F)F)ccc12 (stereo not shown) [Example 95, 3-(5-(1-(dimethylglycyl)piperidin-3-yl)-2-methoxy-benzamido)-N-(4-fluoro-3-(trifluoromethyl)phenyl)-6-(trifluoromethyl) benzo[b] thiophene-2-carboxamide], the EC50 is reported as 870 nM. Compound COc1ccc(C2CCCN(C(=O)C(C)(C)CO)C2)cc1C(=O)Nc1c(C(=O)Nc2ccc(F)c(C(F)(F)F)c2)sc2cc(C(F)(F)F)ccc12 (single isomer, unassigned) [Example 105, N-[4-fluoro-3-(trifluoromethyl)phenyl]-3-{5-[1-(3-hydroxy-2,2-dimethyl-propanoyl)piperidin-3-yl]-2-methoxy-benzamido}-6-(trifluoromethyl)-1-benzothiophene-2-carboxamide] has an EC50 of 149 nM. With COc1ccc(-c2cc(C(NC(=O)C3CCOCC3)C(F)(F)F)ccc2F)cc1C(=O)Nc1c(C(=O)Nc2ccc(F)c(C(F)(F)F)c2)sc2cc(C(F)(F)F)ccc12 (single isomer, unassigned) [Example 21, N-(2,2,2-trifluoro-1-(6-fluoro-3′-((2-((4-fluoro-3-(trifluoromethyl)phenyl)carbamoyl)-6-(trifluoromethyl)benzo[b]thiophen-3-yl)carbamoyl)-4′-methoxy-[1,1′-biphenyl]-3-yl)ethyl)tetrahydro-2H-pyran-4-carboxamide] the EC50 was 363 nM. COc1ccc(S(=O)(=O)N2CCC[C@@H](NCC(N)=O)C2)cc1C(=O)Nc1c(C(=O)Nc2ccc(F)c(C(F)(F)F)c2)sc2cc(C(F)(F)F)ccc12 [Example 31] showed an EC50 of 3280 nM. For COc1ccc(C2=NOC3CN(C(=O)CO)CC23)cc1C(=O)Nc1c(C(=O)Nc2ccc(F)c(C(F)(F)F)c2)sc2cc(C(F)(F)F)ccc12 (single isomer, unassigned) [Example 242, N-(4-fluoro-3-(trifluoromethyl)phenyl)-3-(5-(5-(2-hydroxyacetyl)-3a,5,6,6a-tetrahydro-4H-pyrrolo[3,4-d]isoxazol-3-yl)-2-methoxy-benzamido)-6-(trifluoromethyl) benzo[b] thiophene-2-carboxamide], the EC50 was 9.8 nM. With COc1ccc(C2CCN(C(=O)C(C)(C)CO)C2)cc1C(=O)Nc1c(C(=O)Nc2ccc(F)c(C(F)(F)F)c2)sc2cc(C(F)(F)F)ccc12 (single isomer, unassigned) [Example 139, N-(4-fluoro-3-(trifluoromethyl)phenyl)-3-(5-(1-(3-hydroxy-2,2-dimethyl-propanoyl)pyrrolidin-3-yl)-2-methoxy-benzamido)-6-(trifluoromethyl) benzo[b] thiophene-2-carboxamide] the EC50 was 72.6 nM. With COc1ccc(C2CCCN(CCO)CC2)cc1C(=O)Nc1c(C(=O)Nc2ccc(F)c(C(F)(F)F)c2)sc2cc(C(F)(F)F)ccc12 (single isomer, unassigned) [Example 72, N-(4-fluoro-3-(trifluoromethyl)phenyl)-3-(5-(1-(2-hydroxyethyl)azepan-4-yl)-2-methoxy-benzamido)-6-(trifluoromethyl) benzo[b] thiophene-2-carboxamide] the EC50 was 4310 nM. COc1ccc(C2CCCN(C(=O)OC(C)(C)C)C2)cc1C(=O)Nc1c(C(=O)Nc2ccc(F)c(C(F)(F)F)c2)sc2cc(C(F)(F)F)ccc12 (stereo not shown) [Example 79, tert-butyl 3-(3-((2-((4-fluoro-3-(trifluoromethyl)phenyl)carbamoyl)-6-(trifluoromethyl)benzo[b]thiophen-3-yl)carbamoyl)-4-methoxyphenyl) piperidine-1-carboxylate] gave an EC50 of 390 nM. COc1ccc(-c2cc(CN)ccc2F)cc1C(=O)Nc1c(C(=O)Nc2ccc(F)c(C(F)(F)F)c2)sc2cc(C(F)(F)F)ccc12 [Example 16, 3-(5′-(aminomethyl)-2′-fluoro-4-methoxy-[1,1′-biphenyl]-3-carboxamido)-N-(4-fluoro-3-(trifluoromethyl)phenyl)-6-(trifluoromethyl)benzo[b]thiophene-2-carboxamide] was tested, and the EC50 was 677 nM. COc1ccc(C(=O)N2CC(O)C2)cc1C(=O)Nc1c(C(=O)Nc2ccc(F)c(C(F)(F)F)c2)sc2cc(C(F)(F)F)ccc12 [Example 191, N-(4-fluoro-3-(trifluoromethyl)phenyl)-3-(5-(3-hydroxyazetidine-1-carbonyl)-2-methoxy-benzamido)-6-(trifluoromethyl) benzo[b] thiophene-2-carboxamide] was tested, and the EC50 was 346 nM. COc1ccc(C2=NOC3CNCC23)cc1C(=O)Nc1c(C(=O)Nc2ccc(F)c(C(F)(F)F)c2)sc2cc(C(F)(F)F)ccc12 (stereo not shown) [Example 247, N-(4-fluoro-3-(trifluoromethyl)phenyl)-3-(2-methoxy-5-(3a,5,6,6a-tetrahydro-4H-pyrrolo[3,4-d]isoxazol-3-yl)benzamido)-6-(trifluoromethyl) benzo[b] thiophene-2-carboxamide] gave an EC50 of 531 nM.

Source: patent publication US20260265233A1, “BENZOTHIOPHENE DERIVATIVES AS RXFP1 AGONISTS” (BRISTOL-MYERS SQUIBB COMPANY, priority 2021, published 2026)
